According to patent publication US11814652B2, “Pluripotent stem cell differentiation-promoting agent” (Oriental Yeast Co., Ltd., priority 2018, dated 2023):

Tests used:
[1] = system: iPS cells 201B7 strain; experiment: Cell number during mesodermal differentiation-induction in medium with β-NMN (Example 3); type: cell-based, human; details: mesodermal differentiation-inducing medium containing β-NMN 0.1, 0.25 or 1 mM; 7th day after seeding; versus medium not containing β-NMN
Procedure: The effects of β-NMN on the mesodermal differentiation-induction of iPS cells were examined. The 201B7 strain was used as the iPS cells. The iPS cells were seeded in a 24-well plate coated with Matrigel (manufactured by Corning Incorporated) according to the manufacturer's protocol at 1×10^5 cells/well. The cells in the 24-well plate were cultured in a culture medium for iPS cells adjusted to have a final concentration of Rock inhibitor of 10 μM for 1 day. From the 1st day after seeding, the culture medium was replaced with a culture medium prepared by adjusting a mesoderm differentiation-inducing culture medium of “STEMdiff Trilineage Differentiation kit” (manufactured by STEMCELL Technologies) to have a final concentration of β-NMN of 0, 0.1, 0.25, or 1 mM for 1 day. The culture medium was replaced with a culture medium prepared by adjusting a mesodermal differentiation-inducing culture medium to have final concentrations of both β-NMN and Rock inhibitor of 10 μM only on the 1st day after seeding. Cells of the 7th day after seeding were sampled and the cell numbers were counted. As a result, the number of the cells cultured in the mesodermal differentiation-inducing culture medium containing β-NMN was larger than the number of the cells cultured in the medium not containing β-NMN.

[2] = system: iPS cells 201B7 strain; experiment: Flow cytometry of Brachyury/CD56 after mesodermal differentiation-induction following undifferentiated culture with β-NMN (Example 6); type: cell-based, human; details: β-NMN 0.25 or 1 mM before mesodermal differentiation-induction; 5th or 7th day; versus absence of β-NMN
Procedure: The effects of culturing in the presence of β-NMN before induction of differentiation on the mesodermal differentiation-induction of iPS cells was examined. As the iPS cells, the 201B7 strain was used. The iPS cells were cultured in a culture dish in the same manner as in Example 5, and when the confluent reached 70 to 80%, the iPS cells were detached from the culture dish and collected. The collected iPS cells were seeded at 1×10^5 cells/well in a 24-well plate coated with Matrigel (manufactured by Corning Incorporated) according to the manufacturer's protocol. The cells in the 24-well plate were cultured for 1 day in a culture medium prepared by removing β-NMN from the culture medium when culturing in the culture dish and adjusting to have a final concentration of Rock inhibitor of 10 μM. From the 1st day after seeding, the medium was replaced every day with a culture medium for mesodermal differentiation-induction of “STEMdiff Trilineage Differentiation kit” (manufactured by STEMCELL Technologies). In the same manner as in Example 3, the cells sampled on the 5th or 7th day after seeding were stained with a fluorescently labeled anti-Brachyury antibody and a fluorescently labeled anti-CD56 antibody, and a flow cytometer was used to analyze the fluorescence intensity of the anti-Brachyury antibody and the fluorescence intensity of the anti-CD56 antibody in each sample. […]

[3] = system: Human adipose tissue-derived mesenchymal stem cells; experiment: qPCR of PPARγ and adiponectin genes after adipocyte differentiation-induction of mesenchymal stem cells grown with β-NMN (Example 9); type: cell-based; details: GAPDH internal standard, 0.1 mM or 0.25 mM of β-NMN, 0 mM defined as 1, 14th day of adipocyte differentiation-induction
Excerpt: The effects of culturing in the presence of β-NMN before adipocyte differentiation-induction of mesenchymal stern cells were examined. In the same manner as in Example 8, Human adipose tissue-derived mesenchymal stem cells (manufactured by Lonza, Cat #PT5006) were used as the mesenchymal stem cells. As a growth culture medium, a culture medium prepared by appropriately adding β-MNM to “MSCGM Bullet Kit” (manufactured by Lonza, Cat #PT3001) was used as in Example 8. As an adipocyte differentiation-inducing culture medium, a culture medium prepared by adjusting a DMEM-High Glucose medium to have a final concentration of fetal bovine serum of 10% by volume, a final concentration of IBMX of 0.5 mM, a final concentration of dexamethasone of 1 μM, a final concentration of indomethacin of 200 μM, and a final concentration of penicillin-streptomycin of 0.1% was used. The culture of the mesenchymal stem cells before differentiation-induction was performed in the same manner as in Example 8. The differentiation induction was performed in the same manner as in Example 8 except that the adipocyte differentiation-inducing culture medium was used instead of the bone differentiation-inducing culture medium. […] The relative expression level of each gene was determined from the results of qPCR of cells that were induced to differentiate into adipocytes. […]

With `NC(=O)c1ccc[n+]([C@@H]2O[C@H](COP(=O)([O-])O)[C@@H](O)[C@H]2O)c1` [β-NMN, β-nicotinamide mononucleotide] the “number of the cells” value [1] was “larger”, the “ratio of Brachyury-positive CD56-positive cells” value [2] was “no clear difference” and the “relative expression level of the PPARγ gene” value [3] was “increase”. For the same compound, the “relative expression level of the adiponectin gene” value [3] was “increase”.
